Values of other authors in US11174289B1, “Artificial intelligence designed antimicrobial peptides” (International Business Machines Corporation, priority 2020, dated 2021).

Experiments:
[1] = no significant antimicrobial activity; strain not given
[2] = comparison value for the clinically used drug

In the case of FPVTWPTKWWKG [PuroB], the MIC [1] is listed as > 200 µg/mL.
For polymyxin B, the LD50 [2] is listed as 20.5 mg/kg.
